According to patent publication US9593149B2, “Amylin and calcitonin receptor agonist” (Novo Nordisk A/S, priority 2014, dated 2017):
Values after ≈ are worked out from the molar mass of the structure shown. Numbered stars: 1 amine (or outer) side, 2 acyl side, 3 side chain; on linkers, the order of the positions; unused ones are H or OH. Peptide text beside a SMILES is read from it. * marks the point of attachment. C20 diacid = O=C(O)CCCCCCCCCCCCCCCCCCC(=O)*; C18 diacid = O=C(O)CCCCCCCCCCCCCCCCC(=O)*; γGlu = O=C(O)[C@H](CCC(=O)[*:2])N[*:1]; AEEA = NCCOCCOCC(=O)O

Assay: Assay (IV) determination of solubility
Type: physicochemical
Description: Assay (IV)—Determination of Solubility
The mimylin peptide was dissolved in water at ˜500 nmol/ml and mixed 1:1 with a series of buffers (100 mM glycylglycine pH 3.0, 100 mM glycylglycine pH 4.0, 100 mM glycylglycine pH 5.0, 100 mM bistrispropane pH 6.0, 100 mM bistrispropane pH 6.5, 100 mM bistrispropane pH 7.0, 100 mM bistrispropane pH 7.5, 100 mM bistrispropane pH 8.0).

CC(C)C[C@H](NC(=O)[C@H](C)NC(=O)[C@H](C)NC(=O)[C@@H](NC(=O)[C@H](CO)NC(=O)[C@H](CC(C)C)NC(=O)[C@H](CCC(=O)O)NC(=O)[C@H](CO)NC(=O)[C@H](C)NC(=O)COCCOCCNC(=O)COCCOCCNC(=O)CC[C@H](NC(=O)CCCCCCCCCCCCCCCCCCC(=O)O)C(=O)O)[C@@H](C)O)C(=O)NCC(=O)N[C@@H](CCCNC(=N)N)C(=O)N[C@@H](CC(C)C)C(=O)N[C@@H](CO)C(=O)N[C@@H](C)C(=O)N[C@@H](CCC(=O)O)C(=O)N[C@@H](CC(C)C)C(=O)N[C@@H](Cc1cnc[nH]1)C(=O)N[C@@H](CCC(=O)O)C(=O)N[C@@H](CC(C)C)C(=O)N[C@@H](C)C(=O)N[C@H](C(=O)N[C@@H](CC(C)C)C(=O)N1CCC[C@H]1C(=O)N[C@@H](CCCNC(=N)N)C(=O)N[C@H](C(=O)N[C@@H](CCC(=O)O)C(=O)N[C@H](C(=O)NCC(=O)N[C@@H](CO)C(=O)NCC(=O)N[C@@H](CO)C(=O)N1CCC[C@H]1C(N)=O)[C@@H](C)O)[C@@H](C)O)[C@@H](C)O [compound 42, [N-terminal(C20 diacid-gGlu-2xOEG), des1, 30S, 31G]mimylin] ({C20 diacid-γGlu-AEEA-AEEA}-ASELSTAALGRLSAELHELATLPRTETGSGSP-NH2)
Solubility (pH 3.0): ≧200 μM | Solubility (pH 4.0): ≧200 μM | Solubility (pH 5.0): ≧200 μM | Solubility (pH 6.0): ≧200 μM | Solubility (pH 6.5): ≧200 μM | Solubility (pH 7.0): ≧200 μM | Solubility (pH 7.5): ≧200 μM | Solubility (pH 8.0): ≧200 μM

CC(C)C[C@H](NC(=O)[C@H](C)NC(=O)[C@H](C)NC(=O)[C@@H](NC(=O)[C@H](CO)NC(=O)[C@H](CC(C)C)NC(=O)[C@H](CCC(=O)O)NC(=O)[C@H](CO)NC(=O)[C@H](C)NC(=O)CC[C@H](NC(=O)CCCCCCCCCCCCCCCCC(=O)O)C(=O)O)[C@@H](C)O)C(=O)NCC(=O)N[C@@H](CCCNC(=N)N)C(=O)N[C@@H](CC(C)C)C(=O)N[C@@H](CO)C(=O)N[C@@H](C)C(=O)N[C@@H](CCC(=O)O)C(=O)N[C@@H](CC(C)C)C(=O)N[C@@H](Cc1cnc[nH]1)C(=O)N[C@@H](CCC(=O)O)C(=O)N[C@@H](CC(C)C)C(=O)N[C@@H](C)C(=O)N[C@H](C(=O)N[C@@H](CC(C)C)C(=O)N1CCC[C@H]1C(=O)N[C@@H](CCCNC(=N)N)C(=O)N[C@H](C(=O)N[C@@H](CCC(=O)O)C(=O)N[C@H](C(=O)NCC(=O)N[C@@H](CO)C(=O)N[C@@H](CCC(=O)O)C(=O)N[C@@H](CO)C(=O)N1CCC[C@H]1C(N)=O)[C@@H](C)O)[C@@H](C)O)[C@@H](C)O [compound 23, [N-terminal(C18 diacid-gGlu), des1, 30S]mimylin] ({C18 diacid-γGlu}-ASELSTAALGRLSAELHELATLPRTETGSESP-NH2)
Solubility (pH 3.0): ≧200 μM | Solubility (pH 4.0): ≧200 μM | Solubility (pH 5.0): ≧200 μM | Solubility (pH 6.0): ≧200 μM | Solubility (pH 6.5): ≧200 μM | Solubility (pH 7.0): ≧200 μM | Solubility (pH 7.5): ≧200 μM | Solubility (pH 8.0): ≧200 μM

CC(C)C[C@H](NC(=O)[C@H](C)NC(=O)[C@H](C)NC(=O)[C@@H](NC(=O)[C@H](CO)NC(=O)[C@H](Cc1cnc[nH]1)NC(=O)[C@H](CCC(=O)O)NC(=O)[C@H](CO)NC(=O)[C@H](C)NC(=O)[C@H](CCC(=O)O)NC(=O)CCCCCCCCCCCCCCCCC(=O)O)[C@@H](C)O)C(=O)NCC(=O)N[C@@H](CCCNC(=N)N)C(=O)N[C@@H](CC(C)C)C(=O)N[C@@H](CO)C(=O)N[C@@H](C)C(=O)N[C@@H](CCC(=O)O)C(=O)N[C@@H](CC(C)C)C(=O)N[C@@H](Cc1cnc[nH]1)C(=O)N[C@@H](CCC(=O)O)C(=O)N[C@@H](CC(C)C)C(=O)N[C@@H](C)C(=O)N[C@H](C(=O)N[C@@H](CC(C)C)C(=O)N1CCC[C@H]1C(=O)N[C@@H](CCCNC(=N)N)C(=O)N[C@H](C(=O)N[C@@H](CCC(=O)O)C(=O)N[C@H](C(=O)NCC(=O)N1CCC[C@H]1C(=O)N[C@@H](CCC(=O)O)C(=O)N[C@@H](CO)C(=O)N1CCC[C@H]1C(N)=O)[C@@H](C)O)[C@@H](C)O)[C@@H](C)O [compound 17, [N-terminal(C18 diacid), 5H]mimylin] ({C18 diacid}-EASEHSTAALGRLSAELHELATLPRTETGPESP-NH2)
Solubility (pH 3.0): ≧200 μM | Solubility (pH 4.0): ≧200 μM | Solubility (pH 5.0): ≧200 μM | Solubility (pH 6.0): ≧200 μM | Solubility (pH 6.5): ≧200 μM | Solubility (pH 7.0): ≧200 μM | Solubility (pH 7.5): ≧200 μM | Solubility (pH 8.0): ≧200 μM

CC(C)C[C@H](NC(=O)[C@H](CCC(=O)O)NC(=O)[C@H](Cc1cnc[nH]1)NC(=O)[C@H](CC(C)C)NC(=O)[C@H](CCC(=O)O)NC(=O)[C@H](C)NC(=O)[C@H](CO)NC(=O)[C@H](CC(C)C)NC(=O)[C@H](CCCNC(=N)N)NC(=O)CNC(=O)[C@@H](NC(=O)[C@@H](NC(=O)[C@H](C)NC(=O)[C@@H](NC(=O)[C@H](CO)NC(=O)[C@@H](NC(=O)[C@H](CCC(=O)O)NC(=O)[C@H](CO)NC(=O)[C@H](C)NC(=O)CC[C@H](NC(=O)CCCCCCCCCCCCCCCCC(=O)O)C(=O)O)C(C)C)[C@@H](C)O)C(C)C)C(C)C)C(=O)N[C@@H](C)C(=O)N[C@H](C(=O)N[C@@H](CC(C)C)C(=O)N1CCC[C@H]1C(=O)N[C@@H](CCCNC(=N)N)C(=O)N[C@H](C(=O)N[C@@H](CCC(=O)O)C(=O)N[C@H](C(=O)NCC(=O)N[C@@H](CO)C(=O)NCC(=O)N[C@@H](CO)C(=O)N1CCC[C@H]1C(N)=O)[C@@H](C)O)[C@@H](C)O)[C@@H](C)O [compound 96, [N-terminal(C18 diacid-gGlu), des1, 5V, 9V, 10V, 30S, 31G]mimylin] ({C18 diacid-γGlu}-ASEVSTAVVGRLSAELHELATLPRTETGSGSP-NH2)
Solubility (pH 3.0): ≧200 μM | solubility at 18 h (pH 4.0): 177 µM (≈ 646 µg/mL) | solubility at 18 h (pH 5.0): 45 µM (≈ 164 µg/mL) | Solubility (pH 6.0): ≧200 μM | Solubility (pH 6.5): ≧200 μM | Solubility (pH 7.0): ≧200 μM | Solubility (pH 7.5): ≧200 μM | Solubility (pH 8.0): ≧200 μM

CC(C)C[C@H](NC(=O)CNC(=O)[C@H](CO)NC(=O)[C@H](CC(C)C)NC(=O)[C@H](CCC(=O)O)NC(=O)CC[C@H](NC(=O)CCCCCCCCCCCCCCCCCCC(=O)O)C(=O)O)C(=O)N[C@@H](CO)C(=O)N[C@H](C(=O)N[C@@H](CC(C)C)C(=O)N[C@H](C(=O)N[C@@H](CC(C)C)C(=O)NCC(=O)N[C@@H](CCCNC(=N)N)C(=O)N[C@@H](CC(C)C)C(=O)N[C@@H](CO)C(=O)N[C@@H](CCC(N)=O)C(=O)N[C@@H](CCC(=O)O)C(=O)N[C@@H](CC(C)C)C(=O)N[C@@H](Cc1cnc[nH]1)C(=O)N[C@@H](CCC(=O)O)C(=O)N[C@@H](CC(C)C)C(=O)N[C@@H](CCC(N)=O)C(=O)N[C@H](C(=O)N[C@@H](Cc1ccc(O)cc1)C(=O)N1CCC[C@H]1C(=O)N[C@@H](CCCNC(=N)N)C(=O)N[C@H](C(=O)NCC(=O)N[C@H](C(=O)NCC(=O)N[C@@H](CO)C(=O)NCC(=O)N[C@H](C(=O)N[C@@H](Cc1ccc(O)cc1)C(N)=O)[C@@H](C)O)[C@@H](C)O)[C@@H](C)O)[C@@H](C)O)C(C)C)[C@@H](C)O [compound 129, [N-terminal(C20 diacid-gGlu), 2L, 4G, 8L, 9V, 15Q, 21Q, 23Y, 27G, 30S, 31G, 32T, 33Y]mimylin] ({C20 diacid-γGlu}-ELSGLSTLVLGRLSQELHELQTYPRTGTGSGTY-NH2)
Solubility (pH 3.0): ≧200 μM | Solubility (pH 4.0): ≧200 μM | solubility at 18 h (pH 5.0): 1 µM (≈ 4.02 µg/mL) | solubility at 18 h (pH 6.0): 1 µM (≈ 4.02 µg/mL) | solubility at 18 h (pH 6.5): 1 µM (≈ 4.02 µg/mL) | solubility at 18 h (pH 7.0): 1 µM (≈ 4.02 µg/mL) | solubility at 18 h (pH 7.5): 52 µM (≈ 209 µg/mL) | solubility at 18 h (pH 8.0): 185 µM (≈ 743 µg/mL)

CC(C)C[C@H](NC(=O)[C@H](C)NC(=O)[C@H](CC(C)C)NC(=O)[C@@H](NC(=O)[C@H](CO)NC(=O)[C@H](CC(C)C)NC(=O)[C@H](CCC(=O)O)NC(=O)[C@H](CO)NC(=O)[C@H](C)NC(=O)[C@H](CCC(=O)O)NC(=O)CCCCCCCCCCCCCCCCC(=O)O)[C@@H](C)O)C(=O)NCC(=O)N[C@@H](CCCNC(=N)N)C(=O)N[C@@H](CC(C)C)C(=O)N[C@@H](CO)C(=O)N[C@@H](C)C(=O)N[C@@H](CCC(=O)O)C(=O)N[C@@H](CC(C)C)C(=O)N[C@@H](Cc1cnc[nH]1)C(=O)N[C@@H](CCC(=O)O)C(=O)N[C@@H](CC(C)C)C(=O)N[C@@H](C)C(=O)N[C@H](C(=O)N[C@@H](CC(C)C)C(=O)N1CCC[C@H]1C(=O)N[C@@H](CCCNC(=N)N)C(=O)N[C@H](C(=O)N[C@@H](CCC(=O)O)C(=O)N[C@H](C(=O)NCC(=O)N1CCC[C@H]1C(=O)N[C@@H](CCC(=O)O)C(=O)N[C@@H](CO)C(=O)N1CCC[C@H]1C(N)=O)[C@@H](C)O)[C@@H](C)O)[C@@H](C)O [compound 15, [N-terminal(C18 diacid), 8L]mimylin] ({C18 diacid}-EASELSTLALGRLSAELHELATLPRTETGPESP-NH2)
Solubility (pH 3.0): ≧200 μM | Solubility (pH 4.0): ≧200 μM | Solubility (pH 5.0): ≧200 μM | Solubility (pH 6.0): ≧200 μM | Solubility (pH 6.5): ≧200 μM | Solubility (pH 7.0): ≧200 μM | Solubility (pH 7.5): ≧200 μM | Solubility (pH 8.0): ≧200 μM
